What all share (assay type): cell-based
The subject of assay [1] is LS8817 cells. The assay can be described thus: Senescence-associated β-galactosidase / senescence analysis in LS8817 cells. The settings on record: for accumulation of SA-β-gal staining: 100 μM doxorubicin for five days.
For a further assay, the system named is U2OS cells. The assay can be described thus: Senescence analysis (SA-β-gal) in U2OS cells. The protocol:
(§1) Cells were plated at a concentration of 25,000 per well in a 4-well chamber slides (Lab-Tek) and treated for seven days with drug and stained for senescence-associated β-galactosidase (Cell Signaling kit #9860). Cell number was quantitated by DAPI staining and β-galactosidase staining quantitated as a proportion of total cells.

Assay [2] relates to LS8817 cells. The assay is described as follows: ATRX foci per cell by immunofluorescence in LS8817 cells. The method, then: (§2) Cells were washed twice with PBS and fixed with 4% paraformaldehyde at room temperature for 20 minutes. Cells were again washed twice with PBS and treated with 0.5% triton X-100 in PBS. Cells were again washed twice with PBS and blocked in 5% BSA in PBS for 30 minutes at room temperature. Cells were incubated with anti-ATRX antibody, obtained from Bethyl, Cat No. A301-045A, diluted at 1:2000 in PBS (stock is provided at 1 mg/ml) overnight at 4 degrees Celsius. The following day, cells were washed twice with PBS and incubated with Alexa Fluor-488 anti-rabbit secondary diluted at 1:500 in PBS (stock was provided at 2 mg/ml) for one hour at room temperature. Cells were washed twice with PBS and incubated with 0.1 μg/ml DAPI for 5 minutes at room temperature. Cells were washed three times with PBS and slides were mounted in Vectashield fluorescence mounting media. Slides were imaged using a Zeiss Axioplan 2 Upright Microscope.

The test system of assay [3] is LS8107 cells. The assay can be described thus: ATRX foci per cell by immunofluorescence in LS8107 cells. As to conditions: PD0332991 followed by shMDM2, compared to untreated or PD0332991 alone. The protocol:
as §2

The test system of assay [4] is LS8107 cells. The assay can be described thus: Senescence analysis (SA-β-gal) in LS8107 cells. The method, then:
as §1

As to `CC(=O)c1c(C)c2cnc(Nc3ccc(N4CCNCC4)cn3)nc2n(C2CCCC2)c1=O` [PD0332991], the “cell state (quiescent or senescent)” value is “enter a senescent state” in the assay with LS8817 cells [1] (LS8817 cells, 1 μM or 0.1 μM) and “entered a quiescent state” with LS8107 cells [4] (CDK4 inhibitor alone). For the same compound, the “cell state (quiescent or senescent) on CDK4 inhibition, by SA-β-gal” value in the assay on U2OS cells (U2OS cells expressing exogenous ATRX) is reported as “entering a senescent state”. Also, in the assay with U2OS cells (U2OS cells that do not express endogenous ATRX), the “cell state (quiescent or senescent) on CDK4 inhibition” value is “entering a quiescent state versus a senescent state”. The “average number of ATRX foci per cell” value with LS8817 cells [2] (LS8817 cells, PD0332991 1 μM or 0.1 μM) is given as “significant increase”. Also, the “number of ATRX foci per cell” value in the assay on LS8817 cells [2] (LS8817 cells, PD0332991 in the presence of exogenous MDM2 (tet-on-MDM2-Flag, doxycycline), compared to PD0332991 alone) is “prevented an increase”; in the assay with LS8107 cells [3] it was “significant increase”. The “accumulation of SA-β-gal” value in the assay on LS8107 cells [4] (PD0332991 followed by shMDM2) is on record as “accumulation of SA-β-gal”.

With `COc1cccc2c1C(=O)c1c(O)c3c(c(O)c1C2=O)C[C@@](O)(C(=O)CO)C[C@@H]3O[C@H]1C[C@H](N)[C@H](O)[C@H](C)O1` [doxorubicin], the figures for the “accumulation of SA-β-gal staining” value with LS8817 cells [1] (LS8817 cells expressing shATRX) and in the assay on LS8817 cells [1] (LS8817 cells expressing shSCR) were “did not significantly accumulate” and “significantly accumulated”, respectively. Also, in the assay with LS8817 cells [2] (LS8817 cells expressing shATRX, 100 μM doxorubicin for five days), the “ATRX foci in cells expressing shATRX” value is “not observed”. Besides, the “average number of ATRX foci per cell” value with LS8817 cells [2] (LS8817 cells, 100 μM doxorubicin for five days, control cells about 8) is given as “about 35”.

The record behind these values is US20160109430A1, “METHODS FOR DRUG DISCOVERY” (Memorial Sloan-Kettering Cancer Center, priority 2014, published 2016).
